# Source: the supplement of paper PMC11208160
# Experiment: recombinant barcode read abundance after kanamycin selection (control-corrected) (log10(CPM+1)); higher = more efficient recombination; sequences stand for … in AGTGCAGAGAAAATCGGCCAGTTTTCTCTGCCTGCAGTCCGCATGCCGT…AGATTTATGCAGCGGACTGCCTTTCTCCCAAAGTGATAAACCGGACAGTATCATGGACCGGTTTTCCCGGTAATCCGTATTTGCAAGGTTGGTTTCACT; site = the 11-nt target
# Method in brief: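 A promoter, a target, a barcode and the first 104 bridge RNA bases under J23119 made up each oligo. Oligos were Gibson-cloned into a vector bearing the other 73 bp and a T7-inducible recombinase, then co-electroporated into E. coli with a donor plasmid and plated in duplicate on chloramphenicol/ampicillin LB agar (control) or chloramphenicol/ampicillin/kanamycin with 0.1 mM IPTG. Recombination efficiency is the averaged, control-corrected counts per million of recombinant-junction barcodes. Reported values are log10(CPM+1).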
# 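Note: IS621 recombinase and bridge RNA in Escherichia coli cells.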
row,Sequence,recombinant barcode read abundance (log10)
1,CATGACCCTTGGGTTCTAACCTGTTGCCT (site CAGGACCCTAG),0.85
2,CATGACCCTTGGGTTCTAACCTGTTGCCT (site CATGACCCTAG),1.67
3,CATGATACTTGGGTTCTAACCTGTTGCCT (site ATCTTGTCTCC),0.0865
4,CATGATACTTGGGTTCTAACCTGTTGCCT (site CATGATACTAG),0.922
5,CATGCCTCTTGGGTTCTAACCTGTTGCCG (site CATGCCTCTCG),2.17
6,CATGCCTCTTGGGTTCTAACCTGTTGCCG (site GCAAGTCCTAC),0.227
7,CATGCGACTTGGGTTCTAACCTGTTGCGT (site AGCATCCCTCA),0.234
8,CATGCGACTTGGGTTCTAACCTGTTGCGT (site CATGCGACTAC),0.472
9,CATGCTACTTGGGTTCTAACCTGTTGCGT (site CATGCTACTAC),0.41
10,CATGCTACTTGGGTTCTAACCTGTTGCGT (site GATTCTACTAC),0.0988
11,CATGTACCTTGGGTTCTAACCTGTTGCCT (site AATGTACCTAG),0.0837
12,CATGTACCTTGGGTTCTAACCTGTTGCCT (site CATGTACCTAG),2.02
13,CATGTACCTTGGGTTCTAACCTGTTGCCT (site GATGTACCTAG),0.145
14,CATGTACCTTGGGTTCTAACCTGTTGCCT (site TATGTACCTAG),0.0813
15,CATTAGACTTGGGTTCTAACCTGTTGCCT (site AATTAGACTAG),0.356
16,CATTAGACTTGGGTTCTAACCTGTTGCCT (site CATTAGACTAG),0.423
17,CATTAGACTTGGGTTCTAACCTGTTGCCT (site GATTAGACTAG),0.195
18,CATTAGACTTGGGTTCTAACCTGTTGCCT (site TATTAGACTAG),0.08

row,Sequence,recombinant barcode read abundance (log10)
1,CATTCAACTTGGGTTCTAACCTGTTGCCT (site CATTCAACTAG),0.133
2,CATTCAACTTGGGTTCTAACCTGTTGCCT (site CATTCAACTCG),0.115
3,CATTTCACTTGGGTTCTAACCTGTTGCCT (site CATTTCACTAG),0.379
4,CATTTCACTTGGGTTCTAACCTGTTGCCT (site GCCCATGCTCC),0.0522
5,CATTTCCCTTGGGTTCTAACCTGTTGCTT (site CATTTCCCTAA),0.122
6,CATTTCCCTTGGGTTCTAACCTGTTGCTT (site CATTTCCCTAG),0.246
7,CATTTCTCTTGGGTTCTAACCTGTTGCCT (site AATTTCTCTAG),0.0363
8,CATTTCTCTTGGGTTCTAACCTGTTGCCT (site CATTTCTCTAG),0.341
9,CATTTCTCTTGGGTTCTAACCTGTTGCCT (site GATTTCTCTAG),0.116
10,CATTTCTCTTGGGTTCTAACCTGTTGCCT (site TATTTCTCTAG),0.00749
11,CCAAAGACTTGGGTTCTAACCTGTTGCTT (site CCAAAGACTAA),0.653
12,CCAAAGACTTGGGTTCTAACCTGTTGCTT (site GGGTCACCTCC),0
13,CCACACTCTTGGGTTCTAACCTGTTGCCT (site CAACACTCTAG),0.0891
14,CCACACTCTTGGGTTCTAACCTGTTGCCT (site CCACACTCTAG),1.27
15,CCACACTCTTGGGTTCTAACCTGTTGCCT (site CGACACTCTAG),0.0247
16,CCACACTCTTGGGTTCTAACCTGTTGCCT (site CTACACTCTAG),0.171
17,CCACATCCTTGGGTTCTAACCTGTTGCCT (site CCACATCCTAG),0.289
18,CCACATCCTTGGGTTCTAACCTGTTGCCT (site GCACACCCTAG),0.109
